Assay results: PubChem BioAssay AID720737 (The Scripps Research Institute Molecular Screening Center, 2013)
Activity calls are given as the source filed them.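 Rule for the calls: active = compounds whose fitted concentration for half of maximal LXR reporter activation EC50 is 10 µM or lower; inactive = the rest.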

System: HEK293 Gal4-LXR tk-luc reporter, luminescence, 24 h
Assay: LXR agonists, Gal4 luciferase reporter, dose response, counter-screen for ssDAF-12 agonist project, cell-based, luminescence, HEK293, S. stercoralis campaign (AID 720737)

## CC(C)(C)C1CCC(=NNC(=S)Nc2cccnc2)CC1 (stereo unspecified)
  EC50: > 67.5 µM (inactive)
